Paper PMC7782168, “Synthesis, telomerase inhibitory and anticancer activity of new 2-phenyl-4H-chromone derivatives containing 1,3,4-oxadiazole moiety” (Journal of Enzyme Inhibition and Medicinal Chemistry, 2020)

What was measured:
[1] = system: SMMC-7721 (human hepatoma cell); assay: In vitro anticancer (antiproliferative) MTT assay, SMMC-7721; assay type: cell-based
Description: (§1) A375, MDA-MB-231, MGC-803, SMMC-7721, SGC-7901 and L-02 cell lines were cultured in DMEM medium supplemented with 10% (V/V) heat-inactivated fetal bovine serum (FBS) (Biological Industries, Israel) along with 100 U/mL penicillin and […] streptomycin (Beyotime, China). Cells were grown in a humidified 5% CO2 atmosphere at 37 °C and maintained in a logarithmic growth phase for all experiments.
(§2) 2.5. Anticancer assay[23]

[2] = system: human normal liver cell (L-02); assay: Toxicity against human normal liver cells, MTT assay; assay type: cell-based; conditions: triplicate
Description: as §1, §2
In order to determine the selective cytotoxicity of selected compounds, we subsequently conducted a proliferative inhibition assay with human normal liver cell (L-02). […] Therefore, in combination with the above points, it is quite meaningful to further explore the mechanisms of this compound.

[3] = system: MDA-MB-231 (human breast cancer cell); assay: In vitro anticancer (antiproliferative) MTT assay, MDA-MB-231; assay type: cell-based
Description: as §1, §2

[4] = system: MGC-803 (human gastric cancer cell); assay: In vitro anticancer (antiproliferative) MTT assay, MGC-803; assay type: cell-based
Description: as §1, §2

telomerase = molecular target: T1, telomerase (Homo sapiens, UniProt O14746); assay: Telomerase activity assay using MGC-803 cells extract; assay type: biochemical; conditions: mean ± SD
T1 construct: assayed for telomerase activity using MGC-803 cells extract; endogenous in cells; host or cells: MGC-803 cell extract
T1 sequence (O14746 whole entry): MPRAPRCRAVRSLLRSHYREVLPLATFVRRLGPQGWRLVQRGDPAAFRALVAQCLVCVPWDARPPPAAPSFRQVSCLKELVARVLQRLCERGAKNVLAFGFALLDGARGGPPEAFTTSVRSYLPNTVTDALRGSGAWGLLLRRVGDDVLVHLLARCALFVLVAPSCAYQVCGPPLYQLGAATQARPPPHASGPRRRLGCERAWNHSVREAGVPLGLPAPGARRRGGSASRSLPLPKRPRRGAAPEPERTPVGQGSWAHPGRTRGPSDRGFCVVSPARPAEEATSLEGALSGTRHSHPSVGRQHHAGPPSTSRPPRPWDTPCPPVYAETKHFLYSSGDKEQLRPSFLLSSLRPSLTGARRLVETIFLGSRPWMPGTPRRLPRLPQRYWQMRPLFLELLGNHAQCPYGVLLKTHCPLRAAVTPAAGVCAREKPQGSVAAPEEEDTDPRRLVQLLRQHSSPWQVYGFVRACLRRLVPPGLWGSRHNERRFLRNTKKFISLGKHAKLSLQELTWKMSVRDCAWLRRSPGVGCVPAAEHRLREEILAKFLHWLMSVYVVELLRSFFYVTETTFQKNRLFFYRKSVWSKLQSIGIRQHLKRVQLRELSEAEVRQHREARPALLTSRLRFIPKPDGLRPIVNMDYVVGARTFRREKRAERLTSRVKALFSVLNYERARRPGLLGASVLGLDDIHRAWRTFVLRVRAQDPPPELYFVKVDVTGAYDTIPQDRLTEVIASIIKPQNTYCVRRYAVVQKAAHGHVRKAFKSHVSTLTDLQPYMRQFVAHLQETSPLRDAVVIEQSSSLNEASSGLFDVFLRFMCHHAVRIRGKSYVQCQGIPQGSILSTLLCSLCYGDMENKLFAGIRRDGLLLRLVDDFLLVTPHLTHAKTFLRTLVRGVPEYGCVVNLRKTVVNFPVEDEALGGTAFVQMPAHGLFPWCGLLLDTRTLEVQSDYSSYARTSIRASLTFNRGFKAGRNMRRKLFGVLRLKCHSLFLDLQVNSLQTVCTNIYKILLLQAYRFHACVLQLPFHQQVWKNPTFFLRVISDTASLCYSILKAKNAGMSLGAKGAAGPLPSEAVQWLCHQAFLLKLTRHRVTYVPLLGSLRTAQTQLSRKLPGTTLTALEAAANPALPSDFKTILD
T1 sequence (O60832 2-514 partner limits assumed): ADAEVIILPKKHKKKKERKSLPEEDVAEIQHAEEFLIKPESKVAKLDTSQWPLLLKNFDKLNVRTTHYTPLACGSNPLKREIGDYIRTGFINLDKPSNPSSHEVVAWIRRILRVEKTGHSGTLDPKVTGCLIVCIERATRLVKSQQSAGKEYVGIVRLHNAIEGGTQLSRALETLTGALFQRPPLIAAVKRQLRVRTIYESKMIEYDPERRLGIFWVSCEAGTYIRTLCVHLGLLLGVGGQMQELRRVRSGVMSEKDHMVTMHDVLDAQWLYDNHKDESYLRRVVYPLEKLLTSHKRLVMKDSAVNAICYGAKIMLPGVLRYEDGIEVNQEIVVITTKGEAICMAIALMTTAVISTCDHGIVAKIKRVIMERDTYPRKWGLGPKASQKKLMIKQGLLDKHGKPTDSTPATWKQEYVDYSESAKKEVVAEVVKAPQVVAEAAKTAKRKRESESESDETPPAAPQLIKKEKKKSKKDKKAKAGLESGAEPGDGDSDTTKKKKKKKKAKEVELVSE
T1 sequence (Q9NPE3 whole entry partner): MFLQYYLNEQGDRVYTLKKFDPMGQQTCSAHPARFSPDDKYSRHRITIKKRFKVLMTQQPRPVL
T1 sequence (Q9NX24 whole entry partner): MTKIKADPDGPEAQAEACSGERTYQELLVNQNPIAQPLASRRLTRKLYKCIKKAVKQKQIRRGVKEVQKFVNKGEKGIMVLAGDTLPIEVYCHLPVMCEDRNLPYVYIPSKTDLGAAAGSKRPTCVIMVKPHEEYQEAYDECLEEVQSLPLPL
T1 sequence (Q9NY12 whole entry partner): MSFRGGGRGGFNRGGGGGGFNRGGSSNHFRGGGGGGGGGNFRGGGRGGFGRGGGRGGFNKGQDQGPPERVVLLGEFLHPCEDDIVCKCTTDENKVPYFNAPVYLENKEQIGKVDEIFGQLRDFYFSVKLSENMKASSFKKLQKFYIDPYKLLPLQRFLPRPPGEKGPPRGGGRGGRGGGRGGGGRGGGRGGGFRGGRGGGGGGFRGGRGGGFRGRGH

[5] = system: A375 (human melanoma cell); assay: In vitro anticancer (antiproliferative) MTT assay, A375; assay type: cell-based
Description: as §1, §2

[6] = system: SGC-7901 (human gastric cancer cell); assay: In vitro anticancer (antiproliferative) MTT assay, SGC-7901; assay type: cell-based
Description: as §1, §2

[7] = Homo sapiens, SMMC-7721, mean ± SD of three experiments in triplicate
[8] = Homo sapiens, MDA-MB-231, mean ± SD of three experiments in triplicate
[9] = Homo sapiens, MGC-803, mean ± SD of three experiments in triplicate
[10] = Homo sapiens, A-375, mean ± SD of three experiments in triplicate
[11] = Homo sapiens, SGC-7901, mean ± SD of three experiments in triplicate
[12] = mean ± SD of three experiments in triplicate

| SMILES | IC50 [1, 7] [µM] | IC50 [2] [µM] | IC50 [3, 8] [µM] | IC50 [4, 9] [µM] | IC50 (telomerase) [µM] | melting point [°C] | IC50 [5, 10] [µM] | IC50 [6, 11] [µM] | IC50 [1, 12] [µM] | IC50 [3, 12] [µM] | IC50 [4, 12] [µM] | IC50 [5, 12] [µM] | IC50 [6, 12] [µM] |
| --- | --- | --- | --- | --- | --- | --- | --- | --- | --- | --- | --- | --- | --- |
| COc1cc(OC)c2c(=O)c(OCC(=O)Nc3nnc(-c4ccc(Cl)cc4)o3)c(-c3cc(OC)c(OC)c(OC)c3)oc2c1 [A5, N-(5–(4-chlorophenyl)-1,3,4-oxadiazol-2-yl)-2–(5,7-dimethoxy-4-oxo-2–(3,4,5-trimethoxyphenyl)-4H-chromen-3-yloxy)acetamide] | > 100 | 1990 ± 130 | > 100 | 15.2 ± 0.41 | 0.81 ± 0.13 | 227 to 229 | 20.1 ± 0.62 | 25.4 ± 0.59 | – | – | – | – | – |
| COc1cc(OC)c2c(=O)c(OCC(=O)Nc3nnc(-c4ccc(OC)c(OC)c4)o3)c(-c3cc(OC)c(OC)c(OC)c3)oc2c1 [A27, 2–(5,7-dimethoxy-4-oxo-2–(3,4,5-trimethoxyphenyl)-4H-chromen-3-yloxy)-N-(5–(3,4-dimethoxyphenyl)-1,3,4-oxadiazol-2-yl)acetamide] | > 100 | 1380 ± 210 | > 100 | > 100 | 0.32 ± 0.07 | 220 to 222 | > 100 | > 100 | – | – | – | – | – |
| COc1cc(OC)c2c(=O)c(OCC(=O)Nc3nnc(-c4ccc(C(F)(F)F)cc4)o3)c(-c3cc(OC)c(OC)c(OC)c3)oc2c1 [A16, 2–(5,7-dimethoxy-4-oxo-2–(3,4,5-trimethoxyphenyl)-4H-chromen-3-yloxy)-N-(5–(4-(trifluoromethyl)phenyl)-1,3,4-oxadiazol-2-yl)acetamide] | > 100 | 900 ± 110 | > 100 | > 100 | 0.62 ± 0.11 | 231 to 233 | 10.1 ± 0.52 | > 100 | – | – | – | – | – |
| COc1cc(OC)c2c(=O)c(OCC(=O)Nc3nnc(-c4ccc(F)cc4)o3)c(-c3cc(OC)c(OC)c(OC)c3)oc2c1 [A2, 2–(5,7-dimethoxy-4-oxo-2–(3,4,5-trimethoxyphenyl)-4H-chromen-3-yloxy)-N-(5–(4-fluorophenyl)-1,3,4-oxadiazol-2-yl)acetamide] | 8.07 ± 1.3 | 1370 ± 430 | 25.1 ± 2.1 | 17.3 ± 2.21 | 0.77 ± 0.13 | 221 to 223 | 11 ± 1.54 | 56.9 ± 1.24 | – | – | – | – | – |
| COc1cc(OC)c2c(=O)c(OCC(=O)Nc3nnc(/C=C/c4ccccc4)o3)c(-c3ccc(OC)c(OC)c3)oc2c1 [B33, (E)-2–(2-(3,4-dimethoxyphenyl)-5,7-dimethoxy-4-oxo-4H-chromen-3-yloxy)-N-(5-styryl-1,3,4-oxadiazol-2-yl)acetamide] | > 100 | 1010 ± 140 | > 100 | > 100 | 0.97 ± 0.2 | 226 to 228 | > 100 | > 100 | – | – | – | – | – |
| C/C(=C\C(=O)Nc1ccccc1C(=O)O)c1ccc2ccccc2c1 [BIBR1532, reference compound] | – | – | – | – | – | – | – | – | > 100 | > 100 | > 100 | 57.58 ± 0.21 | > 100 |
| COc1cc(OC)c2c(=O)c(OCC(=O)Nc3nnc(-c4cccc(OC(F)(F)F)c4)o3)c(-c3cc(OC)c(OC)c(OC)c3)oc2c1 [A20, 2–(5,7-dimethoxy-4-oxo-2–(3,4,5-trimethoxyphenyl)-4H-chromen-3-yloxy)-N-(5–(3-(trifluoromethoxy)phenyl)-1,3,4-oxadiazol-2-yl)acetamide] | > 100 | 620 ± 240 | 19.5 ± 1 | 6.29 ± 0.36 | 0.92 ± 0.17 | 221 to 223 | 8.92 ± 0.69 | 10.2 ± 0.65 | – | – | – | – | – |
| COc1cc(OC)c2c(=O)c(OCC(=O)Nc3nnc(-c4ccc(OC)c(OC)c4)o3)c(-c3ccc(OC)c(OC)c3)oc2c1 [B27, N-(5–(3,4-dimethoxyphenyl)-1,3,4-oxadiazol-2-yl)-2–(2-(3,4-dimethoxyphenyl)-5,7-dimethoxy-4-oxo-4H-chromen-3-yloxy)acetamide] | > 100 | 1670 ± 250 | > 100 | > 100 | 0.51 ± 0.1 | 151 to 153 | > 100 | > 100 | – | – | – | – | – |
| COc1cccc2c1C(=O)c1c(O)c3c(c(O)c1C2=O)C[C@@](O)(C(=O)CO)C[C@@H]3O[C@H]1C[C@H](N)[C@H](O)[C@H](C)O1 [ADM, Adriamycin, reference compound] | 0.79 ± 0.13 | – | 0.51 ± 0.12 | 0.42 ± 0.08 | – | – | 0.58 ± 0.2 | 0.82 ± 0.43 | – | – | – | – | – |
| COc1cc(OC)c2c(=O)c(OCC(=O)Nc3nnc(-c4cccc([N+](=O)[O-])c4)o3)c(-c3ccc(OC)c(OC)c3)oc2c1 [B14, 2–(2-(3,4-dimethoxyphenyl)-5,7-dimethoxy-4-oxo-4H-chromen-3-yloxy)-N-(5–(3-nitrophenyl)-1,3,4-oxadiazol-2-yl)acetamide] | – | – | – | – | 8.29 ± 1.33 | 235 to 237 | – | – | – | – | – | – | – |
| COc1cc(OC)c2c(=O)c(OCC(=O)Nc3nnc(-c4cccc(Cl)c4)o3)c(-c3cc(OC)c(OC)c(OC)c3)oc2c1 [A6, N-(5–(3-chlorophenyl)-1,3,4-oxadiazol-2-yl)-2–(5,7-dimethoxy-4-oxo-2–(3,4,5-trimethoxyphenyl)-4H-chromen-3-yloxy)acetamide] | – | – | – | – | 7.35 ± 1.01 | 206 to 208 | – | – | – | – | – | – | – |
| COc1cc(OC)c2c(=O)c(OCC(=O)Nc3nnc(-c4ccccc4Cl)o3)c(-c3cc(OC)c(OC)c(OC)c3)oc2c1 [A7, N-(5–(2-chlorophenyl)-1,3,4-oxadiazol-2-yl)-2–(5,7-dimethoxy-4-oxo-2–(3,4,5-trimethoxyphenyl)-4H-chromen-3-yloxy)acetamide] | – | – | – | – | 12.5 ± 1.88 | 201 to 203 | – | – | – | – | – | – | – |
| COc1cc(OC)c2c(=O)c(OCC(=O)Nc3nnc(-c4cccc(OCc5ccccc5)c4)o3)c(-c3cc(OC)c(OC)c(OC)c3)oc2c1 [A30, N-(5–(3-(benzyloxy)phenyl)-1,3,4-oxadiazol-2-yl)-2–(5,7-dimethoxy-4-oxo-2–(3,4,5-trimethoxyphenyl)-4H-chromen-3-yloxy)acetamide] | – | – | – | – | > 60 | 188 to 190 | – | – | – | – | – | – | – |
| COc1cc(OC)c2c(=O)c(OCC(=O)Nc3nnc(-c4cccc(Br)c4)o3)c(-c3ccc(OC)c(OC)c3)oc2c1 [B9, N-(5–(3-bromophenyl)-1,3,4-oxadiazol-2-yl)-2–(2-(3,4-dimethoxyphenyl)-5,7-dimethoxy-4-oxo-4H-chromen-3-yloxy)acetamide] | – | – | – | – | 2.9 ± 0.45 | 204 to 206 | – | – | – | – | – | – | – |
| COc1cc(OC)c2c(=O)c(OCC(=O)Nc3nnc(-c4cccs4)o3)c(-c3cc(OC)c(OC)c(OC)c3)oc2c1 [A32, 2–(5,7-dimethoxy-4-oxo-2–(3,4,5-trimethoxyphenyl)-4H-chromen-3-yloxy)-N-(5-(thiophen-2-yl)-1,3,4-oxadiazol-2-yl)acetamide] | – | – | – | – | 2.22 ± 0.51 | 224 to 226 | – | – | – | – | – | – | – |
| COc1cc(OC)c2c(=O)c(OCC(=O)Nc3nnc(-c4ccc(C)cc4)o3)c(-c3ccc(OC)c(OC)c3)oc2c1 [B11, 2–(2-(3,4-dimethoxyphenyl)-5,7-dimethoxy-4-oxo-4H-chromen-3-yloxy)-N-(5-p-tolyl-1,3,4-oxadiazol-2-yl)acetamide] | – | – | – | – | 5.65 ± 1.77 | 239 to 241 | – | – | – | – | – | – | – |
| COc1cc(OC)c2c(=O)c(OCC(=O)Nc3nnc(-c4ccc(C(F)(F)F)cc4)o3)c(-c3ccc(OC)c(OC)c3)oc2c1 [B16, 2–(2-(3,4-dimethoxyphenyl)-5,7-dimethoxy-4-oxo-4H-chromen-3-yloxy)-N-(5–(4-(trifluoromethyl)phenyl)-1,3,4-oxadiazol-2-yl)acetamide] | – | – | – | – | 1.29 ± 0.2 | 210 to 212 | – | – | – | – | – | – | – |
